Consider one compound from BindingDB's records for patent US20230382904 (The Johns Hopkins University, 2023).

Structures are written as SMILES. pIC50: −log10 of the molar value.

Experiment [1] deals with T1, Mitogen-activated protein kinase kinase kinase 12 (Homo sapiens, UniProt Q12852).
T1 sequence (Q12852 whole entry): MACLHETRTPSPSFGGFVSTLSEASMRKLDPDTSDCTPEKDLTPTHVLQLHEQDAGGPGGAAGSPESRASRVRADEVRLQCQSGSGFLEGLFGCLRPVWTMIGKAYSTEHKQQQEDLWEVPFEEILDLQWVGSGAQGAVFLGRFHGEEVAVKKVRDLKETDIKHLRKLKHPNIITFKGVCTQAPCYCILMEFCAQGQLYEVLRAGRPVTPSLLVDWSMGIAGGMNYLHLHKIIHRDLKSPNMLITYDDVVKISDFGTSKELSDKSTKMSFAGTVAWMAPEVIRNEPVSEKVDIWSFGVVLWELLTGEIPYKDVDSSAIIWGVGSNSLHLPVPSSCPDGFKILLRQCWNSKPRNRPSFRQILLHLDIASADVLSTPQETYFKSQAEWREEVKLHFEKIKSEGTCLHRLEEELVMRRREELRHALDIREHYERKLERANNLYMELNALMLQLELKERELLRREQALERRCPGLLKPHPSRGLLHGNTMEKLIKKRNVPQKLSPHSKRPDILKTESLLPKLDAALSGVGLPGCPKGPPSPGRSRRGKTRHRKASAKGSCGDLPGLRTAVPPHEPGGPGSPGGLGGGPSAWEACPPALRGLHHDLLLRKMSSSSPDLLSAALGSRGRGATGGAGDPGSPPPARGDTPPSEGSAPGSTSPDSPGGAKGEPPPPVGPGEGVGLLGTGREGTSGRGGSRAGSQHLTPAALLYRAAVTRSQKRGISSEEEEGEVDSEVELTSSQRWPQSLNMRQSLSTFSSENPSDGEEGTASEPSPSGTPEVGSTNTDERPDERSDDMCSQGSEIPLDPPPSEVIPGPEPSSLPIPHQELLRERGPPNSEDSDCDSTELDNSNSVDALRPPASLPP
In words: DLK Biochemical Assay.

In experiment [2] the target is T2, Mitogen-activated protein kinase kinase kinase 13 (Homo sapiens, UniProt O43283).
T2 sequence (O43283 whole entry): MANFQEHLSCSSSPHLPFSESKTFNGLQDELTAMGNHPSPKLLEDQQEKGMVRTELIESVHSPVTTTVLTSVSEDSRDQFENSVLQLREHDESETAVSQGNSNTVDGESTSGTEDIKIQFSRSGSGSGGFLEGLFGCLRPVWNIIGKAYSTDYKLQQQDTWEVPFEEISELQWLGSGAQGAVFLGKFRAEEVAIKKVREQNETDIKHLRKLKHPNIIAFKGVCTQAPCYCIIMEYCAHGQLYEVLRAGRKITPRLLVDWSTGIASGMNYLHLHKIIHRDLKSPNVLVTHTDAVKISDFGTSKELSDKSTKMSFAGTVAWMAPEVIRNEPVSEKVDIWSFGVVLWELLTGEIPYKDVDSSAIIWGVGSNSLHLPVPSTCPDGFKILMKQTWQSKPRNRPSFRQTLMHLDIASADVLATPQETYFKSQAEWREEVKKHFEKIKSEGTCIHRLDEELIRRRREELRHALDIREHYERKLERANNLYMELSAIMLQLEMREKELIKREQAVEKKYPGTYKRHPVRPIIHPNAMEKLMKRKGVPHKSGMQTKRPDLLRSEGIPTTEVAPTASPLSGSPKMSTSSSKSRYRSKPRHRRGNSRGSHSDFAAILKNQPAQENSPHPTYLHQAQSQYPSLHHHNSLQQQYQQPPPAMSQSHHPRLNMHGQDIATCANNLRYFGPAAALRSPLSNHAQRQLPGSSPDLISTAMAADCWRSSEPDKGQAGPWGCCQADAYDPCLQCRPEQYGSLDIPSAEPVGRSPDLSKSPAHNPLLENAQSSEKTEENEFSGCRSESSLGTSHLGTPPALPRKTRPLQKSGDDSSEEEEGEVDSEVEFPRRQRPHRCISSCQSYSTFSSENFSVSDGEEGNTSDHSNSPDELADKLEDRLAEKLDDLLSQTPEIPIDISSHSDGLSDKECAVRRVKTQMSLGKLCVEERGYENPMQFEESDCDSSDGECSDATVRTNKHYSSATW
In words: LZK Biochemical Assay. Here is the method: All indicated concentrations final concentrations. […] Detection buffer: 25 mM Tris/HCl pH 7.5, 100 mM EDTA, 100 mM NaCl, 200 mM KF, 0.01% Tween 20, 1:500 Smart Block.

For the compound `COC[C@H](NC(=O)c1cc(-c2cc(C(=O)NC(C)C)n3nc(N)nc3c2)cs1)c1ccccc1` [US20230382904, Compound 155], the pIC50 was 8.37 in experiment [1] and 7.39 in experiment [2].

A word on the pIC50: it is the negative decadic logarithm of the IC50, by convention in mol/L. High values mean a low IC50, low ones a high IC50.
